# Values of other authors, collected in patent publication US20190161549A1, “COMBINATION THERAPY WITH A MEK INHIBITOR, A PD-1 AXIS INHIBITOR, AND A VEGF INHIBITOR” (Genentech, Inc., priority 2016, published 2019).
# Where two headings read alike, the source gives them in different places.
# Columns and labels:
# human tumor cell lines = details: through inhibition of MEK1 and MEK2
# [1] = test system: human tumor xenograft models
# cancer patients = details: 14 CRC patients
# [2] = dose range 0.05 mg/kg (approximately 3.5 mg for 70 kg adult) to 80 mg
# [3] = with or without high-fat meal, versus cobimetinib alone fasted
# [4] = not given; remark: listed apart in the source
dose proportionality of pharmacokinetics [2],effect of proton pump inhibitor rabeprazole on pharmacokinetics [3],Compound,proliferation of a variety of human tumor cell lines (human tumor cell lines),ERK phosphorylation in xenograft tumor models [1],response in colorectal cancer (CRC) patients (cancer patients),"Kaplan-Meier estimated overall 24-week progression-free survival (PFS) rate (Study PCD4989g, 95% CI: 12%, 53%) [%]",anti-tumor activity (across doses from 1 to 20 mg/kg),exposure of fixed dose 800 mg q2w versus 1200 mg q3w ([4]; 800 mg every two weeks (equivalent to 10 mg/kg q2w)),dose proportionality of pharmacokinetics ([4]; doses ≥1 mg/kg every three weeks (q3w))
linear pharmacokinetics,minimal effect,"O=C(c1ccc(F)c(F)c1Nc1ccc(I)cc1F)N1CC(O)([C@@H]2CCCCN2)C1 [cobimetinib, (S)[3,4-Difluoro-2-(2-fluoro-4-iodophenylamino)phenyl][3-hydroxy-3-(piperidin-2-yl]azetidin-1-yl) methanone]",inhibits proliferation,inhibits ERK phosphorylation,all patients experienced progressive disease,–,–,–,–
–,–,"atezolizumab: anti-PD-L1 antibody, CAS Registry Number: 1422185-06-5",–,–,–,33,has been observed,equivalent exposure,linear
